Data taken from ChEMBL document CHEMBL1909046, “DrugMatrix in vitro pharmacology data”.

Experiments:
[1] = biological target: 5-hydroxytryptamine receptor 2B (Homo sapiens, UniProt P41595); format: cell membranes, CHO-K1, Membrane; conditions: cho-k1; further: in other assays of this panel Not Active means under 50% inhibition at 10 µM
[2] = biological target: C-C chemokine receptor type 5 (Homo sapiens, UniProt P51681); format: cell membranes, Membrane; conditions: hek293; further: in other assays of this panel Not Active means under 50% inhibition at 10 µM
[3] = biological target: Prostaglandin G/H synthase 1 (Homo sapiens, UniProt P23219); assay: biochemical; format: tissue-based, Platelet; conditions: platelet;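 further: inhibition of COX-1 enzyme activity, with arachidonic acid supplied as substrate; in other assays of this panel Not Active means under 50% inhibition at 10 µM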
[4] = DRUGMATRIX: Glutamate, NMDA, Phencyclidine radioligand binding (ligand: [3H] TCP); format: cell membranes, Rattus norvegicus, Wistar, Cerebral cortex, Membrane; conditions: Not Active = under 50% inhibition at 10 µM
[5] = DRUGMATRIX: Leukotriene, BLT (LTB4) radioligand binding (ligand: [3H]LTB4); format: cell membranes, Membrane; conditions: u-937; Not Active = under 50% inhibition at 10 µM
[6] = biological target: T1, Amine oxidase [flavin-containing] A (Homo sapiens, UniProt P21397); assay: DRUGMATRIX: Monoamine Oxidase MAO-A enzyme inhibition (substrate: Kynuramine); parameters: species or system BTI-TN-5B1-4; conditions: bti-tn-5b1-4; Not Active = under 50% inhibition at 10 µM
T1 sequence (P21397 whole entry): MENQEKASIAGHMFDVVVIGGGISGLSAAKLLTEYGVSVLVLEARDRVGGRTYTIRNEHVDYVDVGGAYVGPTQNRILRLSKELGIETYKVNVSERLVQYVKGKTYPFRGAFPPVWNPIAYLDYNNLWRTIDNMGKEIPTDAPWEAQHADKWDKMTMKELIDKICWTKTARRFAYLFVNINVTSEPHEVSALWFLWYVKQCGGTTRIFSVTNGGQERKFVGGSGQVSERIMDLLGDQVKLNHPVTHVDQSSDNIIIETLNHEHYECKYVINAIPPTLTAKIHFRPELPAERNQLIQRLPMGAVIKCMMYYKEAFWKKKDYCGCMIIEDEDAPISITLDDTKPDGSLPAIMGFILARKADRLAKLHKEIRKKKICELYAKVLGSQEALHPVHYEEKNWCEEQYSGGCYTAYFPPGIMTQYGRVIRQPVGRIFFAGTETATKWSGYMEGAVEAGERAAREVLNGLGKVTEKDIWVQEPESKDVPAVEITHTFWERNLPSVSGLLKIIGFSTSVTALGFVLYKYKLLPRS

[7] = biological target: Delta-type opioid receptor (Homo sapiens, UniProt P41143); format: cell membranes, HEK293, Membrane; conditions: hek293; further: in other assays of this panel Not Active means under 50% inhibition at 10 µM
Estrogen receptor beta = Estrogen receptor beta (Homo sapiens, UniProt Q92731); conditions: sf9; further: in other assays of this panel Not Active means under 50% inhibition at 10 µM
Chain of Estrogen receptor beta (Q92731 whole entry): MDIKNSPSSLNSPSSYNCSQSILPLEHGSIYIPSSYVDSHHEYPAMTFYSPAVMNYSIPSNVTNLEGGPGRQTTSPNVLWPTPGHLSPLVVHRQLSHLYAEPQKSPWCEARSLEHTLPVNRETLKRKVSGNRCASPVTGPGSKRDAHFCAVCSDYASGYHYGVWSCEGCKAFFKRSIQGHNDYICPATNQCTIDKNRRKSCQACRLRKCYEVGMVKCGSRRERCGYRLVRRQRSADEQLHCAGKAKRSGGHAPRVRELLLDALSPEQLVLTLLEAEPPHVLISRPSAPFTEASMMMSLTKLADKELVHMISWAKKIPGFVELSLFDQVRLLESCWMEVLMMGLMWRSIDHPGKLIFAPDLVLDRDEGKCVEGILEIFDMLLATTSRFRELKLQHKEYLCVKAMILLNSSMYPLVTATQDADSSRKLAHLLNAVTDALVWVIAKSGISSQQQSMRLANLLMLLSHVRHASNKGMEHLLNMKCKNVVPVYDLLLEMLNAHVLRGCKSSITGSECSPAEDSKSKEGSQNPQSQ

Chain of Prostaglandin G/H synthase 1 (P23219 whole entry): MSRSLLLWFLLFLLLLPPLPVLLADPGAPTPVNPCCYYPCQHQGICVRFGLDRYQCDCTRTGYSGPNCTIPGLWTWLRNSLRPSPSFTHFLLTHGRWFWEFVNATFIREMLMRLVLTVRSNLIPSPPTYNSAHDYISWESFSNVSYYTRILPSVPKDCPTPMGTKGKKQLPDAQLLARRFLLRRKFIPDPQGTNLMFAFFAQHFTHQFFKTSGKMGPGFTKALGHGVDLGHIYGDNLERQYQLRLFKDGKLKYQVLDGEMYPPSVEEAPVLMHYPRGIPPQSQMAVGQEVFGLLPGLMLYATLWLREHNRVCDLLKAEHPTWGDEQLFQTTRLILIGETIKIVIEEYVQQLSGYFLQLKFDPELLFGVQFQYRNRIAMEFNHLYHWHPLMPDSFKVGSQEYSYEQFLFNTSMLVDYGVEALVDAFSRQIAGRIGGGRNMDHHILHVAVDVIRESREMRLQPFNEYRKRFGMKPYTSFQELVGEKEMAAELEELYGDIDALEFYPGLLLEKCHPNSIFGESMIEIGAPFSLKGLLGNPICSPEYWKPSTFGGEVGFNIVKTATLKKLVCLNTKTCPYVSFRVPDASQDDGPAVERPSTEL
Chain of 5-hydroxytryptamine receptor 2B (P41595 whole entry): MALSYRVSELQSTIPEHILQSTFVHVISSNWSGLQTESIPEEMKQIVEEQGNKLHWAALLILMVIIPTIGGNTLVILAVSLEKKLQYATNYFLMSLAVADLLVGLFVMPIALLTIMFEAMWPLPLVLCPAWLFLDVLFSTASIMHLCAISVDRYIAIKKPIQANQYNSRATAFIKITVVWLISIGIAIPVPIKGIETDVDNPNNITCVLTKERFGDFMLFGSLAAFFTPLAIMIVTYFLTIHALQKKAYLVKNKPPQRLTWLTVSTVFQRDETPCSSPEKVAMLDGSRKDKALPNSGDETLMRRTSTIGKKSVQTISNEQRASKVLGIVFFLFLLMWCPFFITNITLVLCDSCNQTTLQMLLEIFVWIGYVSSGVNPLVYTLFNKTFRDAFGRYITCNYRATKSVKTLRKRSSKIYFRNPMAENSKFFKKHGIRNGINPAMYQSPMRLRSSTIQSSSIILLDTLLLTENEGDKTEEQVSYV
Chain of C-C chemokine receptor type 5 (P51681 whole entry): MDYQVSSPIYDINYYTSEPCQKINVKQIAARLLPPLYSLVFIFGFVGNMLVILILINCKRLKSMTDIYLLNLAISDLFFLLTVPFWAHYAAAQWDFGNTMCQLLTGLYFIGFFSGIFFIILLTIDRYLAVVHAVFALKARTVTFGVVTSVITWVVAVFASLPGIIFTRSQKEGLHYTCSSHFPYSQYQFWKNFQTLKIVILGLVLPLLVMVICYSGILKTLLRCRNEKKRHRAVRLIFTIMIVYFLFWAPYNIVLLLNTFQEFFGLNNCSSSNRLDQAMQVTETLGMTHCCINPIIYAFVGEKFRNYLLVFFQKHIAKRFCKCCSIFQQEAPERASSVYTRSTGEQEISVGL
Chain of Delta-type opioid receptor (P41143 whole entry): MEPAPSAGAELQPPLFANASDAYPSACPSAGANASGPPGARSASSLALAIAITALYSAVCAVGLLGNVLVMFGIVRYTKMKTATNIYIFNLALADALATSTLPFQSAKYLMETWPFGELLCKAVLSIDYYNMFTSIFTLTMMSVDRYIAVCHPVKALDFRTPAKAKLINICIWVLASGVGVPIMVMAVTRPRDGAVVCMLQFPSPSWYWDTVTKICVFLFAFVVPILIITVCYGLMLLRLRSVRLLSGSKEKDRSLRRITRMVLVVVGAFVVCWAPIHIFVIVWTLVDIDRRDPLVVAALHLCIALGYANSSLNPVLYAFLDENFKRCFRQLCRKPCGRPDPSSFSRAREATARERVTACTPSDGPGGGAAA

CC(C)(CO)C(O)C(=O)NCCCO (stereo unspecified) [PANTHENOL]
Not Active: IC50 [1] | IC50 [2] | IC50 [3] | IC50 [4] | Ki [4] | IC50 [5] | Ki [5] | IC50 [6] | IC50 [7] | IC50 (Estrogen receptor beta)

COc1ccc(Cc2nccc3cc(OC)c(OC)cc23)cc1OC [PAPAVERINE]
Not Active: IC50 [1] | IC50 [2] | IC50 [3] | IC50 [4] | Ki [4] | IC50 [5] | Ki [5] | IC50 [6] | IC50 [7] | IC50 (Estrogen receptor beta)

OCCN1CCN(CCCN2c3ccccc3Sc3ccc(Cl)cc32)CC1 [PERPHENAZINE]
Not Active: IC50 [1] | IC50 [2] | IC50 [3] | IC50 [4] | Ki [4] | IC50 [5] | Ki [5] | IC50 [6] | IC50 [7] | IC50 (Estrogen receptor beta)

CCCCC1C(=O)N(c2ccccc2)N(c2ccccc2)C1=O [PHENYLBUTAZONE]
Not Active: IC50 [1] | IC50 [2] | IC50 [3] | IC50 [4] | Ki [4] | IC50 [5] | Ki [5] | IC50 [6] | IC50 [7] | IC50 (Estrogen receptor beta)

Cc1cccc(Nc2cc(Cl)nc(SCC(=O)O)n2)c1C [PIRINIXIC ACID]
Not Active: IC50 [1] | IC50 [2] | IC50 [3] | IC50 [4] | Ki [4] | IC50 [5] | Ki [5] | IC50 [6] | IC50 [7] | IC50 (Estrogen receptor beta)

CC[C@H](C)C(=O)O[C@H]1C[C@H](O)C=C2C=C[C@H](C)[C@H](CC[C@@H](O)C[C@@H](O)CC(=O)O)[C@H]21 [PRAVASTATIN]
Not Active: IC50 [1] | IC50 [2] | IC50 [3] | IC50 [4] | Ki [4] | IC50 [5] | Ki [5] | IC50 [6] | IC50 [7] | IC50 (Estrogen receptor beta)

CC(C)(Sc1cc(C(C)(C)C)c(O)c(C(C)(C)C)c1)Sc1cc(C(C)(C)C)c(O)c(C(C)(C)C)c1 [PROBUCOL]
Not Active: IC50 [1] | IC50 [2] | IC50 [3] | IC50 [4] | Ki [4] | IC50 [5] | Ki [5] | IC50 [6] | IC50 [7] | IC50 (Estrogen receptor beta)

COBALT(II) ACETYLACETONATE
Not Active: IC50 [1] | Ki [1] | IC50 [2] | Ki [2] | IC50 [3] | Ki [3] | IC50 [4] | Ki [4] | IC50 [5] | Ki [5] | IC50 [6] | Ki [6] | IC50 [7] | Ki [7] | IC50 (Estrogen receptor beta) | Ki (Estrogen receptor beta)
